According to patent US8586588B2, “Aryl pyridazinone derivatives and their use as H3 receptor ligands” (Cephalon, Inc., priority 2006, dated 2013):
Where a name gives a salt, the structure may show the parent alone.

Structure (SMILES) | melting point
CC1CC(c2ccc(OCCCN3CCC[C@H]3C)cc2)=NNC1=O (stereo partly drawn) (as salt: HCl) [Example 121, 4-Methyl-6-{4-[3-((R)-2-methyl-pyrrolidin-1-yl)-propoxy]-phenyl}-4,5-dihydro-2H-pyridazin-3-one] | 201 to 203 °C
Cc1cc(-c2ccc(OCCCN3CCC[C@H]3C)cc2)n[nH]c1=O (as salt: HCl) [Example 122, 4-Methyl-6-{4-[3-((R)-2-methyl-pyrrolidin-1-yl)-propoxy]-phenyl}-2H-pyridazin-3-one] | 207 to 208 °C
Cc1cc(-c2ccc(OCCCN3CCCCC3)cc2)n[nH]c1=O (as salt: HCl) [Example 123, 4-Methyl-6-[4-(3-piperidin-1-yl-propoxy)-phenyl]-2H-pyridazin-3-one] | 227 to 229 °C
Cn1nc(-c2ccc(OCCCN3CCC[C@H]3CO)cc2)c2c(c1=O)CCCC2 (as salt: HCl) [Example 124, 4-{4-[3-((S)-2-Hydroxymethyl-pyrrolidin-1-yl)-propoxy]-phenyl}-2-methyl-5,6,7,8-tetrahydro-2H-phthalazin-1-one] | 120 to 122 °C
C[C@@H]1CCCN1CCCOc1cccc(-c2nn(C)c(=O)c3c2CCC3)c1 (as salt: HCl) [Example 125, 2-Methyl-4-{3-[3-((R)-2-methyl-pyrrolidin-1-yl)-propoxy]-phenyl}-2,5,6,7-tetrahydro-cyclopenta[d]pyridazin-1-one] | 172 to 174 °C
Cn1nc(-c2cccc(OCCCN3CCCCC3)c2)c2c(c1=O)CCC2 (as salt: HCl) [Example 126, 2-Methyl-4-[3-(3-piperidin-1-yl-propoxy)-phenyl]-2,5,6,7-tetrahydro-cyclopenta[d]pyridazin-1-one] | 189 to 190 °C
Cn1nc(-c2cccc(OCCCN3CCC[C@H]3CO)c2)c2c(c1=O)CCC2 (as salt: HCl) [Example 127, 4-{3-[3-((S)-2-Hydroxymethyl-pyrrolidin-1-yl)-propoxy]-phenyl}-2-methyl-2,5,6,7-tetrahydro-cyclopenta[d]pyridazin-1-one] | 193 to 194 °C
CC(C)n1ncc(-c2ccc(OCCCN3CCC[C@H]3C)cc2)cc1=O (as salt: HCl) [Example 128, 2-Isopropyl-5-{4-[3-((R)-2-methyl-pyrrolidin-1-yl)-propoxy]-phenyl}-2H-pyridazin-3-one] | 251 to 253 °C
O=c1ccc(-c2ccc(OC3CCN(C4CCC4)CC3)nc2)nn1-c1ccccn1 (as salt: HCl) [Example 149, 6-[6-(1-Cyclobutyl-piperidin-4-yloxy)-pyridin-3-yl]-2-pyridin-2-yl-2H-pyridazin-3-one] | 261 to 262 °C
O=C1CCC(c2ccc(OC3CCN(C4CCC4)CC3)cc2)=NN1c1ccccn1 (as salt: HCl) [Example 158, 6-[4-(1-Cyclobutyl-piperidin-4-yloxy)phenyl]-2-pyridin-2-yl-4,5-dihydro-2H-pyridazin-3-one] | 263 to 265 °C
O=C1NN=C(c2ccc(OC3CCN(C4CCC4)CC3)cc2)C2CCC12 (centres unmarked) (as salt: HCl) [Example 172, 5-[4-(1-Cyclobutyl-piperidin-4-yloxy)-phenyl]-3,4-diaza-bicyclo[4.2.0]oct-4-en-2-one] | 285 to 288 °C
C[C@@H]1CCCN1CCCOc1ccc(C2=NN(c3ccccn3)C(=O)CC2)cc1 (as salt: HCl) [Example 183, 6-{4-[3-((R)-2-Methyl-pyrrolidin-1-yl)-propoxy]-phenyl}-2-pyridin-2-yl-4,5-dihydro-2H-pyridazin-3-one] | 203 to 205 °C
CC1CC(=O)N(c2ccccn2)N=C1c1ccc(OC2CCN(C3CCC3)CC2)cc1 (centres unmarked) (as salt: HCl) [Example 193, 6-[4-(1-Cyclobutyl-piperidin-4-yloxy)-phenyl]-5-methyl-2-pyridin-2-yl-4,5-dihydro-2H-pyridazin-3-one] | 143 to 145 °C
Cc1cc(OCCCN2CCC[C@H]2C)ccc1C1=NNC(=O)CC1 (as salt: HCl) [Example 199, 6-{(R)-2-Methyl-4-[3-(2-methyl-pyrrolidin-1-yl)-propoxy]-phenyl}-4,5-dihydro-2H-pyridazin-3-one] | 121 to 123 °C
C[C@@H]1CCCN1CCCOc1ccc2c(c1)CCc1cc(=O)[nH]nc1-2 (as salt: HCl) [Example 209, 8-[3-((R)-2-Methyl-pyrrolidin-1-yl)-propoxy]-5,6-dihydro-2H-benzo[h]cinnolin-3-one] | 289 to 292 °C
C[C@@H]1CCCN1CCCOc1ccc2c(c1)CCC1CC(=O)NN=C21 (some centres unmarked) (as salt: HCl) [Example 212, 8-[3-(2-Methyl-pyrrolidin-1-yl)-propoxy]-4,4a,5,6-tetrahydro-2H-benzo[h]cinnolin-3-one] | 193 to 195 °C
O=C1CCC(c2ccc(OC3CCN(C4CCC4)CC3)cc2F)=NN1 (as salt: HCl) [Example 219, 6-[4-(1-Cyclobutyl-piperidin-4-yloxy)-2-fluoro-phenyl]-4,5-dihydro-2H-pyridazin-3-one] | > 300 °C
COCn1ncc(-c2ccc(OCCCN3CCC[C@H]3C)cc2C)cc1=O (as salt: HCl) [Example 230, 2-Methoxymethyl-5-{2-methyl-4-[3-((R)-2-methyl-pyrrolidin-1-yl)-propoxyl]-phenyl}-2H-pyridazin-3-one] | 139 to 140.5 °C

Structure (SMILES) | melting point
Cc1cc(OCCCN2CCC[C@H]2C)ccc1-c1cn[nH]c(=O)c1 (as salt: HCl) [Example 231, 5-{2-methyl-4-[3-((R)-2-methyl-pyrrolidin-1-yl)-propoxyl]-phenyl}-2H-pyridazin-3-one] | 186 to 188 °C
COCn1ncc(-c2ccc(OCCCN3CCCCC3)cc2C)cc1=O (as salt: HCl) [Example 232, 2-Methoxymethyl-5-[2-methyl-4-(3-piperidin-1-yl-propoxy)-phenyl]-2H-pyridazin-3-one] | 185 to 197 °C (dec.)
COCn1ncc(-c2ccc(OC3CCN(C4CCC4)CC3)cc2C)cc1=O (as salt: HCl) [Example 234, 5-[4-(1-Cyclobutyl-piperidin-4-yloxy)-2-methyl-phenyl]-2-methoxymethyl-2H-pyridazin-3-one] | 119.5 to 123.5 °C
CCN1N=C(c2ccc(OC3CCN(C4CCC4)CC3)cc2)C2CC2C1=O (centres unmarked) (as salt: HCl) [Example 250, 5-[4-(1-Cyclobutyl-piperidin-4-yloxy)-phenyl]-3-ethyl-3,4-diaza-bicyclo[4.1.0]hept-4-en-2-one] | 246 to 248 °C
CN1N=C(c2ccc(OC3CCN(C4CCC4)CC3)cc2)C2CC2C1=O (centres unmarked) (as salt: HCl) [Example 252, 5-[4-(1-Cyclobutyl-piperidin-4-yloxy)-phenyl]-3-methyl-3,4-diaza-bicyclo[4.1.0]hept-4-en-2-one] | 243 to 245 °C
O=C1C2CC2C(c2ccc(OC3CCN(C4CCC4)CC3)cc2)=NN1c1ccc(F)cc1 (centres unmarked) (as salt: HCl) [Example 253, 5-[4-(1-Cyclobutyl-piperidin-4-yloxy)-phenyl]-3-(4-fluoro-phenyl)-3,4-diaza-bicyclo[4.1.0]hept-4-en-2-one] | 147 to 149 °C
O=C1C2CC2C(c2ccc(OC3CCN(C4CCC4)CC3)cc2)=NN1CC(F)(F)F (centres unmarked) (as salt: HCl) [Example 254, 5-[4-(1-Cyclobutyl-piperidin-4-yloxy)-phenyl]-3-(2,2,2-trifluoro-ethyl)-3,4-diaza-bicyclo[4.1.0]hept-4-en-2-one] | 110 to 121 °C
CN1N=C(c2ccc(OC3CCN(C4CCCC4)CC3)cc2)C2CC2C1=O (centres unmarked) (as salt: HCl) [Example 260, 5-[4-(1-Cyclopentyl-piperidin-4-yloxy)-phenyl]-3-methyl-3,4-diaza-bicyclo[4.1.0]hept-4-en-2-one] | 264 to 266 °C
O=C1NN=C(c2ccc(OC3CCN(C4CCCC4)CC3)cc2)C2CC12 (centres unmarked) (as salt: HCl) [Example 261, 5-[4-(1-Cyclopentyl-piperidin-4-yloxy)-phenyl]-3,4-diaza-bicyclo[4.1.0]hept-4-en-2-one] | 288 to 290 °C
Cc1ccc(=O)n(-c2ccc(OCCCN3CCC[C@H]3C)cc2)n1 (as salt: fumarate) [Example 201, 6-Methyl-2-{4-[3-((R)-2-methyl-pyrrolidin-1-yl)-propoxy]-phenyl}-2H-pyridazin-3-one] | 168 to 170 °C
O=c1ccc(-c2ccccc2)nn1-c1ccc(OC2CCN(C3CCC3)CC2)nc1 (as salt: fumarate) [Example 203, 2-[6-(1-Cyclobutyl-piperidin-4-yloxy)-pyridin-3-yl]-6-phenyl-2H-pyridazin-3-one] | 155 to 159 °C
C[C@@H]1CCCN1CCCOc1ccc(-n2nc(C3CC3)ccc2=O)cc1 (as salt: fumarate) [Example 262, 6-Cyclopropyl-2-{4-[3-((R)-2-methyl-pyrrolidin-1-yl)-propoxy]-phenyl}-2H-pyridazin-3-one] | 51 to 55 °C
C[C@@H]1CCCN1CCCOc1ccc2cnn(C)c(=O)c2c1 (as salt: hydrochloride) [Example 79, 2-Methyl-7-[3-((R)-2-methyl-pyrrolidin-1-yl)-propoxy]-2H-phthalazin-1-one] | 252 to 253 °C
Cc1nn(C)c(=O)cc1-c1ccc(OCCCN2CCCCC2)cc1 (as salt: hydrochloride) [Example 87, 2,6-Dimethyl-5-[4-(3-piperidin-1-yl-propoxy)-phenyl]-2H-pyridazin-3-one] | 210 to 211 °C
Cc1n[nH]c(=O)cc1-c1ccc(OCCCN2CCC[C@H]2C)cc1 (as salt: hydrochloride) [Example 88, 6-Methyl-5-{4-[3-((R)-2-methyl-pyrrolidin-1-yl)-propoxy]-phenyl}-2H-pyridazin-3-one] | 115 °C (dec.)
Cc1n[nH]c(=O)cc1-c1ccc(OCCCN2CCCCCC2)cc1 (as salt: hydrochloride) [Example 90, 5-[4-(3-Azepan-1-yl-propoxy)-phenyl]-6-methyl-2H-pyridazin-3-one] | 204 to 206 °C
C[C@@H]1CCCN1CCCOc1ccc(-c2cnn(C)c(=O)c2)cc1 (as salt: hydrochloride) [Example 91, 2-Methyl-5-{4-[3-((R)-2-methyl-pyrrolidin-1-yl)-propoxy]-phenyl}-2H-pyridazin-3-one] | 222 to 223 °C
